Columns and labels:
[1] = biological target: Transcription factor ETV6/Tyrosine-protein kinase ABL1 (Homo sapiens) (UniProt P00519+P41212); conditions: BaF3
Description: Inhibition of Tel-ABL (unknown origin) expressed in mouse BA/F3 cells assessed as cell growth inhibition after 72 hrs by CellTiter-Glo or CCK-8 assay

[2] = biological target: Bcr/Abl fusion protein (Homo sapiens) (UniProt P00519+P11274); conditions: BaF3
Description: Inhibition of BCR/ABL p210 (unknown origin) expressed in mouse BA/F3 cells assessed as growth inhibition after 72 hrs by CellTiter-Glo or CCK-8 assay

K562 = assay: Antiproliferative activity against human K562 cells assessed as cell viability after 72 hrs by CellTiter-Glo or CCK-8 assay; assay type: functional; conditions: K562, 72 h
[3] = Antiproliferative activity against mouse BA/F3 cells assessed as cell viability after 72 hrs by CellTiter-Glo or CCK-8 assay; assay type: cell-based, BaF3

Chain of Transcription factor ETV6/Tyrosine-protein kinase ABL1 (Homo sapiens) (P00519 whole entry, looked up, the tested form may be a part): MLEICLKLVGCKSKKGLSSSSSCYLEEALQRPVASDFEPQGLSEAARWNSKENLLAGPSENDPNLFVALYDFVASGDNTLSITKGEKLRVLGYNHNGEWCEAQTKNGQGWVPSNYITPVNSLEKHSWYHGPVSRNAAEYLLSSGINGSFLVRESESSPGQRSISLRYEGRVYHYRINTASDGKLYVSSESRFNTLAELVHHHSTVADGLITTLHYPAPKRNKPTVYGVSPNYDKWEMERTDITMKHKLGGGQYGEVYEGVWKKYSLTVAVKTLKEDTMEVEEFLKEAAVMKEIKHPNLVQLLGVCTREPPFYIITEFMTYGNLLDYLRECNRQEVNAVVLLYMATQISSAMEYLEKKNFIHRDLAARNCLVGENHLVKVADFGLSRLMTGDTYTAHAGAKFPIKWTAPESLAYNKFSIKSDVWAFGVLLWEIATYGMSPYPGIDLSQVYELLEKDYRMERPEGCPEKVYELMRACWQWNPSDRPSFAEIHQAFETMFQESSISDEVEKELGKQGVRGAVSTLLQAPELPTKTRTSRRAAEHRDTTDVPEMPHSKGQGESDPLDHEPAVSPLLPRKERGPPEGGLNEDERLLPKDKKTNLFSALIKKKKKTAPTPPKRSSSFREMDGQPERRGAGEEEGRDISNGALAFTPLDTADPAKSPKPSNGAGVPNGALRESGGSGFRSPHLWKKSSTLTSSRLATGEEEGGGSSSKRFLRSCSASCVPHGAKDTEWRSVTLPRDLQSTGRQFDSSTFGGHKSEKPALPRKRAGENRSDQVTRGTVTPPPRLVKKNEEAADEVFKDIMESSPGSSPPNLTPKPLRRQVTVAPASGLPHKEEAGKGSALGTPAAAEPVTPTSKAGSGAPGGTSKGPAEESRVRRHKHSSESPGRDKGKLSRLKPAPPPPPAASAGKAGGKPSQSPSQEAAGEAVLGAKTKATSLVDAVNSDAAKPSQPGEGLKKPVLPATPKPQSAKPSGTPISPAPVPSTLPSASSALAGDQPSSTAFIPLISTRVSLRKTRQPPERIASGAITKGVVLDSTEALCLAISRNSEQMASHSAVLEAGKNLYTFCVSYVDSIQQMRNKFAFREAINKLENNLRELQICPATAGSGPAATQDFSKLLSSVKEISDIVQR
Chain of Transcription factor ETV6/Tyrosine-protein kinase ABL1 (Homo sapiens) (P41212 whole entry, looked up, the tested form may be a part): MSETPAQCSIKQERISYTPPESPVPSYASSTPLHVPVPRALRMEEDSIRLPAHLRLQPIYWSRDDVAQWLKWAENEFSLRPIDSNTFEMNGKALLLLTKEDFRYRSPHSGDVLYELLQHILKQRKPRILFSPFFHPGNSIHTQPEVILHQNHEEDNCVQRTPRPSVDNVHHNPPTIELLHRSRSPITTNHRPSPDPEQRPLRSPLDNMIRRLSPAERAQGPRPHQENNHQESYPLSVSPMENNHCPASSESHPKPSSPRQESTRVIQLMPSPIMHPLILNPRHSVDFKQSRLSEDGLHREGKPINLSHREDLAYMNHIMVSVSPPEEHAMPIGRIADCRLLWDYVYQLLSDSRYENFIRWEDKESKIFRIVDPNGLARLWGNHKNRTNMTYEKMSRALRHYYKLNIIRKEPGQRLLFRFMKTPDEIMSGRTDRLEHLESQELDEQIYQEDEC
Chain of Bcr/Abl fusion protein (Homo sapiens) (P00519 whole entry, looked up, the tested form may be a part): as the sequence (P00519 whole entry, looked up, the tested form may be a part) above
Chain of Bcr/Abl fusion protein (Homo sapiens) (P11274 whole entry, looked up, the tested form may be a part): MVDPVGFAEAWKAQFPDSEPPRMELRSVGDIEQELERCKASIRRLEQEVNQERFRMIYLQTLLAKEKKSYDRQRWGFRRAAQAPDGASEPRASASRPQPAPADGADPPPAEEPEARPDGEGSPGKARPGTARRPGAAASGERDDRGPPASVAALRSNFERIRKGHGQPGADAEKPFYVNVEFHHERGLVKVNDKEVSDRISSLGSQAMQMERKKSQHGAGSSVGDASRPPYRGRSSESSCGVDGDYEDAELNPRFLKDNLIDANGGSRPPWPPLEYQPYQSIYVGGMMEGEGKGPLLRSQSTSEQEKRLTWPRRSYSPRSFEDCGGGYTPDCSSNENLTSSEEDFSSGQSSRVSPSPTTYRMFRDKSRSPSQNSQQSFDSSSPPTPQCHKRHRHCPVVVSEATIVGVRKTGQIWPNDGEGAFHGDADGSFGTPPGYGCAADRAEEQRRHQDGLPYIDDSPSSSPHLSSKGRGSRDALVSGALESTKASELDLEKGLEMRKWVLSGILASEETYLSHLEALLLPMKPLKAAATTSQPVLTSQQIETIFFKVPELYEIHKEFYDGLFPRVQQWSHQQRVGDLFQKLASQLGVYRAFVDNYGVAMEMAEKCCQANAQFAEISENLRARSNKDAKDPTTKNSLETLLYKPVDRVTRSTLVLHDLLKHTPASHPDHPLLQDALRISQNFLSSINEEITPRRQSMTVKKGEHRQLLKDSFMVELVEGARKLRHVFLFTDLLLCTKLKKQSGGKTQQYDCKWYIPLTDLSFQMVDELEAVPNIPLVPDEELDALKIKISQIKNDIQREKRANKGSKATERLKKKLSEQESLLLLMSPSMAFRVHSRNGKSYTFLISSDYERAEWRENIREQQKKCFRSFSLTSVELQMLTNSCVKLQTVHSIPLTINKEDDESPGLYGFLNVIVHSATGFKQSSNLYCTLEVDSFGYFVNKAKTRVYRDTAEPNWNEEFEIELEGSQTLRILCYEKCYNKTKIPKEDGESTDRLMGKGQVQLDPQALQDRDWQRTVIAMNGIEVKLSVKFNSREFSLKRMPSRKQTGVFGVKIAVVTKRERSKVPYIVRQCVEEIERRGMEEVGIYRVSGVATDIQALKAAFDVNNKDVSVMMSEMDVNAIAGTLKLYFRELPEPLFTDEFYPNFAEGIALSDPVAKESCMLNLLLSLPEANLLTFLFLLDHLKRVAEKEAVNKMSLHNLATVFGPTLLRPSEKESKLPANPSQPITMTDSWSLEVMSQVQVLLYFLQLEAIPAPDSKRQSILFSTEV

Structure (SMILES) | GI50 [1] [nM] | GI50 [2] [nM] | GI50 (K562) [nM] | GI50 at 72 h [3] [nM]
CNc1nc(Nc2ccc(C)c([N+](=O)[O-])c2)ncc1C(=O)Nc1cc(NC(=O)c2cccc(C(F)(F)F)c2)ccc1C | 87 | 36 | 52 | > 10000
Cc1cc(C)cc(C(=O)Nc2ccc(C)c(N3Cc4cnc(Nc5ccc(C)c(N)c5)nc4N(C)C3=O)c2)c1 | 31 | 42 | 26 | > 10000
CNc1nc(Nc2ccc(C)c([N+](=O)[O-])c2)ncc1C(=O)Nc1cc(NC(=O)c2ccc3c(c2)OCO3)ccc1C | 1290 | 214 | 499 | > 10000
CNc1nc(Nc2ccc(C)c(N)c2)ncc1C(=O)Nc1cc(NC(=O)c2ccc(OC)c(OC)c2)ccc1C | 1100 | 1600 | 380 | > 10000
Cc1ccc(NC(=O)c2cccc(C(F)(F)F)c2)cc1N1Cc2cnc(NC3CCNCC3)nc2N(C)C1=O | 100 | 150 | 19 | 3000
Cc1ccc(NC(=O)c2cccc(C(F)(F)F)c2)cc1N1Cc2cnc(NC3CCN(C(=O)OC(C)(C)C)CC3)nc2N(C)C1=O | 105 | 55 | 18 | 7520
Cc1ccc(NC(=O)c2cccc(C(F)(F)F)c2)cc1N1Cc2cnc(NCCCN3CCOCC3)nc2N(C)C1=O | 9 | 15 | 7 | 5600
CNc1nc(Nc2ccc(C)c(N)c2)ncc1C(=O)Nc1cc(NC(=O)c2ccc3c(c2)OCO3)ccc1C | 570 | 124 | 353 | > 10000
CNc1nc(Nc2ccc(C)c(N)c2)ncc1C(=O)Nc1cc(NC(=O)c2cc(OC)c(OC)c(OC)c2)ccc1C | 445 | 670 | 250 | > 10000
Cc1ccc(NC(=O)c2cccc(C(F)(F)F)c2)cc1N1Cc2cnc(OC3CCN(C(=O)OC(C)(C)C)CC3)nc2N(C)C1=O | 288 | 132 | 29 | > 10000
CNc1nc(Nc2ccc(C)c(N)c2)ncc1C(=O)Nc1cc(NC(=O)c2ccccc2OC)ccc1C | 5200 | 6400 | 1980 | > 10000
CNc1nc(Nc2ccc(C)c(N)c2)ncc1C(=O)Nc1cc(NC(=O)c2cccc(OC)c2)ccc1C | 524 | 570 | 330 | > 10000
CNc1nc(Nc2ccc(C)c([N+](=O)[O-])c2)ncc1C(=O)Nc1cc(NC(=O)c2ccccc2OC)ccc1C | > 10000 | > 10000 | > 10000 | > 10000
Cc1ccc(Oc2ncc3c(n2)N(C)C(=O)N(c2cc(NC(=O)c4cccc(C(F)(F)F)c4)ccc2C)C3)cc1N | 15 | 32 | 13 | > 10000
CNc1nc(Nc2ccc(C)c([N+](=O)[O-])c2)ncc1C(=O)Nc1cc(NC(=O)c2ccc(OC)c(OC)c2)ccc1C | 1400 | 1600 | 680 | 7300
Cc1ccc(Nc2ncc3c(n2)N(C)C(=O)N(c2cc(NC(=O)c4cccc(C(F)(F)F)c4)ccc2C)C3)cn1 |  |  | 9 | 120
Cc1ccc(NC(=O)c2cccc(C(F)(F)F)c2)cc1N1Cc2cnc(Nc3ccc(C)c(C(F)(F)F)c3)nc2N(C)C1=O | 185 | 67 | 29 | > 10000
CNc1nc(Nc2ccc(C)c([N+](=O)[O-])c2)ncc1C(=O)Nc1cc(NC(=O)c2ccc(OC)cc2)ccc1C | 2900 | 3600 | 1530 | > 10000
Cc1ccc(Nc2ncc3c(n2)N(C)C(=O)N(c2cc(NC(=O)c4cccc(C(F)(F)F)c4)ccc2C)C3)cc1N(C)C | 42 | 30 | 28 | > 10000
Cc1ccc(NC(=O)c2cccc(C(F)(F)F)c2)cc1N1Cc2cnc(OC3CCNCC3)nc2N(C)C1=O | 2040 | 2700 | 220 | > 10000

Structure (SMILES) | GI50 [1] [nM] | GI50 [2] [nM] | GI50 (K562) [nM] | GI50 at 72 h [3] [nM]
Cc1ccc(NC(=O)c2cccc(C(F)(F)F)c2)cc1NC(=O)c1cnc(Nc2ccc(C)c([N+](=O)[O-])c2)nc1N(C)C | > 10000 | > 10000 | > 10000 | > 10000
Cc1ccc(Nc2ncc3c(n2)N(C)C(=O)N(c2cc(NC(=O)c4cccc(C(F)(F)F)c4)ccc2C)C3)cc1 | 50 | 19 | 18 | 8000
Cc1ccc(NC(=O)c2cccc(C(F)(F)F)c2)cc1N1Cc2cnc(O[C@H]3CCNC3)nc2N(C)C1=O | 1380 | 1260 | 450 | > 10000
Cc1ccc(Nc2ncc(C(=O)Nc3cc(NC(=O)c4cccc(C(F)(F)F)c4)ccc3C)c(N(C)C)n2)cc1N | 1030 | 1850 | 1210 | > 10000
Cc1ccc(Nc2ncc3c(n2)N(C)C(=O)N(c2cc(NC(=O)c4cccc(C(F)(F)F)c4)ccc2C)C3)cc1C | 61 | 66 | 17 | 3760
Cc1ccc(Nc2ncc3c(n2)N(C)C(=O)N(c2cc(NC(=O)c4cc(C(C)(C)C)cc(C(C)(C)C)c4)ccc2C)C3)cc1N | 96 | 120 | 1300 | > 10000
CNc1nc(Nc2ccc(C)c([N+](=O)[O-])c2)ncc1C(=O)Nc1cc(NC(=O)c2cccc(OC)c2)ccc1C | 983 | 1100 | 480 | 6310
CNc1nc(Nc2ccc(C)c(N)c2)ncc1C(=O)Nc1cc(NC(=O)c2ccc(OC)cc2)ccc1C | 1300 | 2100 | 610 | > 10000
Cc1ccc(NC(=O)c2cccc(C(F)(F)F)c2)cc1NC(=O)c1cnc(Nc2ccc(C)c([N+](=O)[O-])c2)nc1 | 1400 | 1200 | 380 | 8700
Cc1ccc(Nc2ncc3c(n2)N(C)C(=O)N(c2cc(NC(=O)c4cccc(C(F)(F)F)c4)ccc2C)C3)cc1N | 5 | 5 | 3 | 440
CNc1nc(Nc2ccc(C)c([N+](=O)[O-])c2)ncc1C(=O)Nc1cc(NC(=O)c2cc(OC)cc(OC)c2)ccc1C | 2030 | 294 | 1070 | > 10000
Cc1ccc(Nc2ncc(C(=O)Nc3cc(NC(=O)c4cccc(C(F)(F)F)c4)ccc3C)cn2)cc1N | 590 | 470 | 330 | > 10000
Cc1ccc(NC(=O)c2cccc(C(F)(F)F)c2)cc1N1Cc2cnc(O[C@H]3CCN(C(=O)OC(C)(C)C)C3)nc2N(C)C1=O | 292 | 126 | 30 | 8380
CNc1nc(Nc2ccc(C)c(N)c2)ncc1C(=O)Nc1cc(NC(=O)c2ccc3c(c2)OCCO3)ccc1C | 787 | 1100 | 320 | > 10000
Cc1cccc(C(=O)Nc2ccc(C)c(N3Cc4cnc(Nc5ccc(C)c(N)c5)nc4N(C)C3=O)c2)c1 | 6 | 14 | 68.8 | > 10000
CNc1nc(Nc2ccc(C)c([N+](=O)[O-])c2)ncc1C(=O)Nc1cc(NC(=O)c2ccc3c(c2)OCCO3)ccc1C | 4240 | 4100 | 320 | > 10000
Cc1ccc(Nc2ncc3c(n2)N(C)C(=O)N(c2cc(NC(=O)c4cccc(-c5ccccc5)c4)ccc2C)C3)cc1N | 39 | 46 | 23 | > 10000
CNc1nc(Nc2ccc(C)c(N)c2)ncc1C(=O)Nc1cc(NC(=O)c2cc(OC)cc(OC)c2)ccc1C | 628 | 311 | 230 | > 10000
CNc1nc(Nc2ccc(C)c([N+](=O)[O-])c2)ncc1C(=O)Nc1cc(NC(=O)c2cc(OC)c(OC)c(OC)c2)ccc1C | 931 | 1500 | 430 | > 10000
CNc1cc(Nc2ncc3c(n2)N(C)C(=O)N(c2cc(NC(=O)c4cccc(C(F)(F)F)c4)ccc2C)C3)ccc1C | 20 | 14 | 19 | > 10000

From ChEMBL document CHEMBL3779840, “Discovery of 2-((3-Amino-4-methylphenyl)amino)-N-(2-methyl-5-(3-(trifluoromethyl)benzamido)phenyl)-4-(methylamino)pyrimidine-5-carboxamide (CHMFL-ABL-053) as a Potent, Selective, and Orally Available BCR-ABL/SRC/p38 Kinase Inhibitor for Chronic Myeloid Leukemia” (J Med Chem, 2016)
